Source: patent US8247211B2, “Glycopeptide antibiotics” (American Cyanamid Company, priority 2001, dated 2012)
In brackets after ≈: the same amount, converted by molar mass.

Legend:
Assay in all cases: In vitro antibacterial evaluation: minimum inhibitory concentration (MIC), broth dilution method
Type in all cases: cell-based
Enterococcus sp. = tested on: Enterococcus sp.
Description: (§1) The minimum inhibitory concentration (MIC), the lowest concentration of the antibiotic which inhibits growth of the test organism, is determined by the broth dilution method using Muller-Hinton II […] (Baltimore Biological Laboratories) following the recommendations of the National Committee for Clinical Laboratory Standards [Methods for dilution antimicrobial susceptibility tests for bacteria that grow aerobically, approved standard M7-A2, National Committee for Clinical Laboratory Standards, Villanova, Pa].
(§2) An inoculum level of 5×10^5 CFU/mL, and a range of antibiotic concentrations (64-0.06 μg/mL) is used. […] The test organisms include a spectrum of Gram-positive bacteria comprised of Staphylococcus sp., Streptococcus sp. and Enterococcus sp. These organisms include recent clinical isolates that are resistant to methicillin, penicillin and/or vancomycin.

Escherichia coli = tested on: Escherichia coli
Description: as §1, §2

Staphylococcus sp. = conditions: broth dilution, 18 hours at 35° C.
Description: as §1, §2

Streptococcus sp. = tested on: Streptococcus sp.
Description: as §1, §2

MIC Enterococcus avium (GC 4558) (Enterococcus sp.; Enterococcus avium (GC 4558), broth dilution, 18 hours at 35° C.): 0.5 to 1 µg/mL | MIC Enterococcus faecalis (ATCC 29212) (Enterococcus sp.; Enterococcus faecalis (ATCC 29212), broth dilution, 18 hours at 35° C.): 0.5 to 1 µg/mL | MIC Enterococcus faecalis (GC 4554) (Enterococcus sp.; Enterococcus faecalis (GC 4554), broth dilution, 18 hours at 35° C.): 0.5 to 1 µg/mL | MIC Enterococcus faecalis (GC 6189) (Enterococcus sp.; Enterococcus faecalis (GC 6189), broth dilution, 18 hours at 35° C.): 0.5 µg/mL (≈ 0.362 µM) | MIC Enterococcus faecium (GC 2243) (Enterococcus sp.; Enterococcus faecium (GC 2243), broth dilution, 18 hours at 35° C.): <0.5 to 1 µg/mL | MIC Enterococcus faecium (GC 4556) (Enterococcus sp.; Enterococcus faecium (GC 4556), broth dilution, 18 hours at 35° C.): 1 to 2 µg/mL | MIC Enterococcus faecium (GC 4557) (Enterococcus sp.; Enterococcus faecium (GC 4557), broth dilution, 18 hours at 35° C.): 1 to 2 µg/mL | MIC Enterococcus faecalis (ATCC 29212) (Enterococcus sp.; strain ATCC 29212): 0.5 to 1 µg/mL | MIC Enterococcus faecalis (GC 2242) (Enterococcus sp.; strain GC 2242): 0.5 to 1 µg/mL | MIC Enterococcus faecium (GC 2243) (Enterococcus sp.; strain GC 2243): <0.5 to 1 µg/mL | MIC Enterococcus faecalis (GC 2691) (Enterococcus sp.; strain GC 2691): 0.5 µg/mL (≈ 0.362 µM) | MIC Enterococcus faecalis (GC 3059) (Enterococcus sp.; strain GC 3059): 0.5 µg/mL (≈ 0.362 µM) | MIC Enterococcus faecalis (GC 4554) (Enterococcus sp.; strain GC 4554): 0.5 to 1 µg/mL | MIC Enterococcus faecium (GC 4556) (Enterococcus sp.; strain GC 4556): 1 to 2 µg/mL | MIC Enterococcus faecium (GC 4557) (Enterococcus sp.; strain GC 4557): 1 to 2 µg/mL | MIC Enterococcus avium (GC 4558) (Enterococcus sp.; strain GC 4558): 0.5 to 1 µg/mL | MIC Enterococcus faecalis (GC 6189) (Enterococcus sp.; strain GC 6189): 0.5 µg/mL (≈ 0.362 µM) | MIC Escherichia coli (ATCC 25922) (Escherichia coli; strain ATCC 25922): >64 µg/mL | MIC Escherichia coli (GC 4559) (Escherichia coli; strain GC 4559): >64 µg/mL | MIC Escherichi coli (GC 4560) (Escherichia coli; strain GC 4560): 0.5 to 2 µg/mL | MIC Coagulase Negative Staphylococcus (GC 4547) (Staphylococcus sp.; 5×10^5 CFU/mL): <0.5 to 2 µg/mL | MIC Coagulase Negative Staphylococcus (GC 4548) (Staphylococcus sp.; 5×10^5 CFU/mL): <0.5 to 1 µg/mL | MIC Coagulase Negative Staphylococcus (GC 4549) (Staphylococcus sp.; 5×10^5 CFU/mL): <0.5 to 1 µg/mL | MIC Coagulase Negative Staphylococcus (GC 4551) (Staphylococcus sp.; 5×10^5 CFU/mL): <0.5 to 1 µg/mL | MIC Coagulase Negative Staphylococcus (GC 6257) (Staphylococcus sp.; 5×10^5 CFU/mL): 1 µg/mL (≈ 0.725 µM) | MIC Coagulase Negative Staphylococcus (ID-3941) (Staphylococcus sp.; 5×10^5 CFU/mL): <0.5 µg/mL | MIC Staphylococcus aureus (GC 3051) (Staphylococcus sp.; 5×10^5 CFU/mL): 0.5 µg/mL (≈ 0.362 µM) | MIC Staphylococcus aureus (GC 3053) (Staphylococcus sp.; 5×10^5 CFU/mL): 0.5 µg/mL (≈ 0.362 µM) | MIC Staphylococcus aureus (GC 4545) (Staphylococcus sp.; 5×10^5 CFU/mL): 0.5 to 1 µg/mL | MIC Staphylococcus aureus (GC 3051) (Staphylococcus sp.; strain GC 3051): 0.5 µg/mL (≈ 0.362 µM) | MIC Staphylococcus aureus (GC 3053) (Staphylococcus sp.; strain GC 3053): 0.5 µg/mL (≈ 0.362 µM) | MIC Staphylococcus aureus (GC 4545) (Staphylococcus sp.; strain GC 4545): 0.5 to 1 µg/mL | MIC Coagulase Negative Staphylococcus (GC 4547) (Staphylococcus sp.; strain GC 4547): <0.5 to 2 µg/mL | MIC Coagulase Negative Staphylococcus (GC 4548) (Staphylococcus sp.; strain GC 4548): <0.5 to 1 µg/mL | MIC Coagulase Negative Staphylococcus (GC 4549) (Staphylococcus sp.; strain GC 4549): <0.5 to 1 µg/mL | MIC Coagulase Negative Staphylococcus (GC 4551) (Staphylococcus sp.; strain GC 4551): <0.5 to 1 µg/mL | MIC Coagulase Negative Staphylococcus (GC 6257) (Staphylococcus sp.; strain GC 6257): 1 µg/mL (≈ 0.725 µM) | MIC Coagulase Negative Staphylococcus (ID-3941) (Staphylococcus sp.; strain ID-3941): <0.5 µg/mL | MIC Streptococcus pneumoniae (ATCC 6301) (Streptococcus sp.; strain ATCC 6301): 0.12 µg/mL (≈ 0.087 µM) | MIC Streptococcus pneumoniae (GC 1894) (Streptococcus sp.; strain GC 1894): 0.12 µg/mL (≈ 0.087 µM) | MIC Streptococcus pyogenes (GC 4563) (Streptococcus sp.; strain GC 4563): >0.12 µg/mL | MIC Streptococcus agalactiae (GC 4564) (Streptococcus sp.; strain GC 4564): <0.12 µg/mL | MIC Streptococcus pyogenes (ID-3187) (Streptococcus sp.; strain ID-3187): <0.5 µg/mL
Compound: CC(c1ccccc1)C1NC(=O)CNC(=O)C(CO)NC(=O)C(C(O)C2CNC(=N)N2C2OC(CO)C(O)C(O)C2O)NC(=O)C(C(O)C2CNC(=NC(=O)C(C)(C)C)N2)NC(=O)C(Cc2ccc(OC3OC(CO)C(OC4OC(CO)C(O)C(O)C4O)C(O)C3O)cc2)NC1=O (stereo not drawn) [Example 155, Cyclo[glycyl-β-methylphenylalanyl-O-(4-O-hexopyranosylhexopyranosyl)tyrosyl-3-[2-[(2,2-dimethylpropanoyl)imino]imidazolidin-4-yl]seryl-3-(3-hexopyranosyl-2-iminoimidazolidin-4-yl)serylseryl]]
MIC Staphylococcus haemolyticus (GC 4546) (Staphylococcus sp.; 5×10^5 CFU/mL): <0.5 to 1 µg/mL | MIC Staphylococcus haemolyticus (GC 4546) (Staphylococcus sp.; strain GC 4546): <0.5 to 1 µg/mL
